Measured values as given in patent US8293738B2, “Indazole inhibitors of kinase” (Abbott Laboratories, priority 2010, dated 2012).

Key:
Aurora B = molecular target: T1, Aurora B (Homo sapiens, UniProt Q96GD4); assay: Aurora B enzyme assay (time-resolved fluorescence, histone H3 peptide); type: biochemical; settings: 1 mM ATP, 1 hour
T1 construct: Active Aurora B enzyme (recombinant residues 1-344)
Experimental: To determine Aurora B activity of representative compounds of the invention, Active Aurora B enzyme (recombinant residues 1-344) and INCENP (recombinant GST fusion protein (Upstate)) were incubated in wells of a 384 well plate with biotinylted histone H3 peptide residues 1-21 (Upstate), 1 mM ATP, and various concentrations of inhibitors in a HEPES buffer, pH 7.4 containing MgCl2, sodium othrovanadate, and Triton X-100. After 1 hour, the reaction was stopped with EDTA and anti-phospho-histone H3 Europium Cryptate (Cis-Bio) and SA-APC (Phycolink, Prozyme) were added to detect the phosphopeptide. The amount of phosphorylation was determined by the time-resolved fluorescence ratio of signals at 665 nm and 615 nm. The IC50's were calculated by an exponential fit of the inhibition values with the inhibitor concentrations using Assay Explorer software.

KDR [1] = molecular target: T2, KDR (Homo sapiens, UniProt P35968); assay: KDR cell assay; type: cell-based
Target sequence in this assay (P35968 20-1356, species assumed): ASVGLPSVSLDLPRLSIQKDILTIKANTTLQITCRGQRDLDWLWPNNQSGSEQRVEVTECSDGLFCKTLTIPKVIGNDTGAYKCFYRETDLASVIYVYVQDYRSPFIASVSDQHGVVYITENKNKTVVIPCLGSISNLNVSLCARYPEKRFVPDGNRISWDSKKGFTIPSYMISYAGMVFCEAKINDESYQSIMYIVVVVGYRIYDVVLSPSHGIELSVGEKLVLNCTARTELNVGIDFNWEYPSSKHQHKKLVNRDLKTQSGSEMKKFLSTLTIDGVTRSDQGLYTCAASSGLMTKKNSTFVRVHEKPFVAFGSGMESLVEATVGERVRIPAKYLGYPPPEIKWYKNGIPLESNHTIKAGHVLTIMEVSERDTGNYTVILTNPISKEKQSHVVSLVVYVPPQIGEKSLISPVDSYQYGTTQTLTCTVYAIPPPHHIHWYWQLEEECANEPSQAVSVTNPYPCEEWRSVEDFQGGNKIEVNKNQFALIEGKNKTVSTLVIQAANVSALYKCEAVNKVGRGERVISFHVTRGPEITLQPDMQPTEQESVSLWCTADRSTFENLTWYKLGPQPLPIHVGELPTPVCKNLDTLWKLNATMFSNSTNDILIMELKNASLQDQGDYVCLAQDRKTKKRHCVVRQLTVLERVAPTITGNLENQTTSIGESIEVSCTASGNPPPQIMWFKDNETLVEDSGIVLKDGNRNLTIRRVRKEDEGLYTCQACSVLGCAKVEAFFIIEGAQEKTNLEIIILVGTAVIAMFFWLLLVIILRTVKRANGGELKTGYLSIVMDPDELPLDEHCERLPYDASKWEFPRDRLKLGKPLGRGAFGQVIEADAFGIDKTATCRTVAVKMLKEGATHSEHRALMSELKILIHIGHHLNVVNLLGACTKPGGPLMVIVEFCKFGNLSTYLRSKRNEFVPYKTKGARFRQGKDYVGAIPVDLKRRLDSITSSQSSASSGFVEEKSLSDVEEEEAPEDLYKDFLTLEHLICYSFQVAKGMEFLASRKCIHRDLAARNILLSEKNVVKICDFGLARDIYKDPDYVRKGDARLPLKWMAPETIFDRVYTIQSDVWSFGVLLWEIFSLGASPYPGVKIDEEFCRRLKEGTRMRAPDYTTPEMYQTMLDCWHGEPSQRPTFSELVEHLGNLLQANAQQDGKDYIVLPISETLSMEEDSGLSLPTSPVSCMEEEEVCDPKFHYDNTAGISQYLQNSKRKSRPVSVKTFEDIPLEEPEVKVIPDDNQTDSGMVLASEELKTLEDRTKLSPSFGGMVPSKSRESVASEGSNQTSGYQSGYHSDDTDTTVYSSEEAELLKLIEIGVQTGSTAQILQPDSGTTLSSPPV

KDR [2] = molecular target: T2, KDR; assay: KDR HTRF in vitro kinase assay; type: biochemical; parameters: purified enzyme (His6-KDR 789-1354, MW 63 kD); settings: 1 mM ATP, 60 minutes
Experimental: To determine the activity of the various kinases, a homogenous time-resolved fluorescence (HTRF) in vitro kinase assay was used. (Mathis, G., HTRF(R) Technology. J Biomol Screen, 1999. 4(6): p. 309-314; Alfred J. Kolb, Paul V. Kaplita, David J. Hayes, Young-Whan Park, Christine Pernell, John S. Major and Gerard Mathis, Drug Discovery Today, 1998, 3, 333-342.)
For example for KDR, 7 ng/well of purified enzyme (His6-KDR 789-1354, MW 63 kD) was mixed with 0.5 μM N-biotinylated substrate (Biotin-Ahx-AEEEYFFLA-amide (SEQ. ID. 1)), various concentrations of inhibitor in reaction buffer (50 mM HEPES, pH 7.1, mM MgCl2, 2 mM MnCl2, 0.1% BSA and 1 mM DTT, […] final volume), ATP (1 mM final conc.) in a black 384-well plate. After 60 minutes incubation at room temperature, the reaction was quenched by addition of a buffered EDTA solution (final approximate concentrations: 30 mM EDTA, 0.1% BSA, 0.1% Triton X-100 and 0.24M KF) and a solution of revelation agents (to give 0.084 ng/well streptavidin-XL-665 (Cis-Bio) and 6.5 ng/well antiphsophotyrosine mAb PT66-K Europium kryptate) was added to the reaction mixture. The quenched reaction was allowed to stand at room temperature for 3 hours and was then read in a time-resolved fluorescence detector (InVision, Perkin-Elmer) at 620 nm and 665 nm sequentially with excitation. The ratio between the signal of 620 nm and 665 nm was used in the calculation of the IC50.
Target sequence in this assay (P35968 789-1354): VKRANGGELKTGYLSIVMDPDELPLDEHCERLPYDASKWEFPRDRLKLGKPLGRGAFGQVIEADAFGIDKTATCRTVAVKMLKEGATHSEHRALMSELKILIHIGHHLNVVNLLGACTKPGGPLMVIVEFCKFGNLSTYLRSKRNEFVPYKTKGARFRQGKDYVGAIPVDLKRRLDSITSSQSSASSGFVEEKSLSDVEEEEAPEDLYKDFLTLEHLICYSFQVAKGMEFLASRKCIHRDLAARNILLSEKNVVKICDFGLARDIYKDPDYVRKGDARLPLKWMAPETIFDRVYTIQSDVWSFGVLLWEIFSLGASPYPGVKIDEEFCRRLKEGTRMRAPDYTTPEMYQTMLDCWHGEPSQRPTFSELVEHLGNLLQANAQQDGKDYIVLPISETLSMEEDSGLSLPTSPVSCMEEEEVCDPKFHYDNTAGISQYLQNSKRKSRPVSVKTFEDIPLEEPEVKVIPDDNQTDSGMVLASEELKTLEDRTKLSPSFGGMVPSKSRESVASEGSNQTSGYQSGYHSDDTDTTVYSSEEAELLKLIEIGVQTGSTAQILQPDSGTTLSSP

[3] = tested on: H1299 cells (Human Non-Small Cell Lung Carcinoma); assay: Induction of polyploidy in H1299 cells, high content analysis; type: cell-based; settings: NCI-H1299 cells, 48 hours, polyploid = nuclear area >750μ2, read-out: Polyploid HCA IC50
Experimental: To determine the induction of polyploidy in H1299 cells (Human Non-Small Cell Lung Carcinoma), NCI-H1299 were seeded (4K/well) into 96-well culture plates (tissue culture grade, black, flat-clear bottom) and incubated overnight to produce cell-to-plate adherance Inhibitors at varying concentrations were added into duplicate wells containing cells and culture media (RPMI 1640, 10% fetal calf serum) and incubated at 37 C for 48 hours. The plates were then washed with PBS and the adherent cells fixed by incubating with 3% formalin for 1 hour. After washing four times with PBS, the cells were then stained with Hoechst and subjected to fluorescent (3601/460e) microscopic high content analysis to determine the effect of inhibitors on nuclear size. Polyploid cells (>4N) were defined as those having nuclear area >750μ2. […]

Aurora A = molecular target: T3, Aurora A (Homo sapiens, UniProt O14965); assay: Aurora A enzyme assay (time-resolved fluorescence, STK substrate-2); type: biochemical; settings: 1 mM ATP, 1 hour
T3 sequence (O14965 1-403): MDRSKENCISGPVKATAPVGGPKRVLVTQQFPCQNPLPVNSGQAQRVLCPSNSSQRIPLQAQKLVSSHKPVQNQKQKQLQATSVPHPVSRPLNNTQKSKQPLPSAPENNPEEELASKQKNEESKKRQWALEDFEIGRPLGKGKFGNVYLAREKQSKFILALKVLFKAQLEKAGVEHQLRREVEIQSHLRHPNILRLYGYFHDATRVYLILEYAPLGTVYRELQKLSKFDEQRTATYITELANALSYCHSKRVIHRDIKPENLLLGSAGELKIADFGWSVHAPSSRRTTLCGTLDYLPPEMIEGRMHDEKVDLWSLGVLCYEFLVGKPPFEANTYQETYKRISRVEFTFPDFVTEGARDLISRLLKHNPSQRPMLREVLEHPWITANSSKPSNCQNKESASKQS
Experimental: To determine Aurora A and C activity of representative compounds of the invention, Active Aurora A or C enzyme was incubated in wells of a 384 well plate with biotinylated STK substrate-2 (Upstate), 1 mM ATP, and various concentrations of inhibitors in a Hepes buffer, pH 7.4 containing MgCl2, sodium othrovanadate, and Triton X-100. After 1 hour, the reaction was stopped with EDTA and anti-phospho-STK antibody Europium Cryptate (Upstate) and SA-XL665 (Upstate) were added to detect the phosphopeptide. The amount of phosphorylation was determined by the time-resolved fluorescence ratio of signals at 665 nm and 615 nm. The IC50s were calculated by an exponential fit of the inhibition values with the inhibitor concentrations using Assay Explorer software.

T1 sequence (Q96GD4 whole entry, the tested form may be a part): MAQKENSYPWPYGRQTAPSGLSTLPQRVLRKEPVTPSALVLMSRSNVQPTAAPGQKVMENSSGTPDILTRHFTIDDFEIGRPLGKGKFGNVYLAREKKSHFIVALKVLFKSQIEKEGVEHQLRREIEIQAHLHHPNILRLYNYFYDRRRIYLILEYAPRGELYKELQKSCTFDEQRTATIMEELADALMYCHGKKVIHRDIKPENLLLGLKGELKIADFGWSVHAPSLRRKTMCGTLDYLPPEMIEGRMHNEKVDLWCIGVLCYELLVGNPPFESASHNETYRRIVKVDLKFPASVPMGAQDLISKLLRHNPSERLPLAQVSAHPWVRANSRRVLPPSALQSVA
T1 sequence (Q9NQS7 826-918 partner limits assumed): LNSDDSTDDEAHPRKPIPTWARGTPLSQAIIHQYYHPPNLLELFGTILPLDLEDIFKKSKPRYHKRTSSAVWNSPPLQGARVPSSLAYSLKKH

IC50 (Aurora B) | IC50 (KDR [1]) | IC50 (KDR [2]) | IC50 [3] | IC50 (Aurora A) | Compound
10.3 nM | 123 nM | 32.2 nM | 1 nM | 299 nM | Cc1cc(NC(=O)Nc2ccc(-c3ccc4c(-c5cnn(C)c5)n[nH]c4c3)cc2)no1 [Example 30, N-(5-methylisoxazol-3-yl)-N′-{4-[3-(1-methyl-1H-pyrazol-4-yl)-1H-indazol-6-yl]phenyl}urea]
17 nM | 46 nM | 27.4 nM | 6 nM | > 12500 nM | Cc1cccc(NC(=O)Nc2ccc(-c3ccc4c(-c5cnn(C)c5)n[nH]c4c3)cc2)c1 [Example 2, N-(3-methylphenyl)-N′-{4-[3-(1-methyl-1H-pyrazol-4-yl)-1H-indazol-6-yl]phenyl}urea]
21.2 nM | 187 nM | 86.1 nM | 18 nM | 1000 nM | O=C(Nc1ccc(-c2ccc3c(-c4cnn(CCN5CCOCC5)c4)n[nH]c3c2)cc1)Nc1cccc(F)c1 [Example 6, N-(3-fluorophenyl)-N′-(4-{3-[1-(2-morpholin-4-ylethyl)-1H-pyrazol-4-yl]-1H-indazol-6-yl}phenyl)urea]
24.9 nM | 355 nM | 80.7 nM | 10 nM | 246 nM | Cn1cc(-c2n[nH]c3cc(-c4ccc(NC(=O)Nc5ccccc5Cl)cc4)ccc23)cn1 [Example 23, N-(2-chlorophenyl)-N′-{4-[3-(1-methyl-1H-pyrazol-4-yl)-1H-indazol-6-yl]phenyl}urea]
10.9 nM | 135 nM | 44.6 nM | 216 nM | > 12500 nM | O=C(Nc1ccc(-c2ccc3c(-c4cnn(C5CCNCC5)c4)n[nH]c3c2)cc1)Nc1cccc(F)c1 [Example 16, N-(3-fluorophenyl)-N′-{4-[3-(1-piperidin-4-yl-1H-pyrazol-4-yl)-1H-indazol-6-yl]phenyl}urea]
24.7 nM | – | 122 nM | < 1 nM | > 12500 nM | Cn1cc(-c2n[nH]c3cc(-c4ccc(NC(=O)Nc5ccc(Cl)cc5)cc4)ccc23)cn1 [Example 20, N-(4-chlorophenyl)-N′-{4-[3-(1-methyl-1H-pyrazol-4-yl)-1H-indazol-6-yl]phenyl}urea]
62.3 nM | – | 325 nM | 13 nM | > 12500 nM | Cn1cc(-c2n[nH]c3cc(-c4ccc(NC(=O)Nc5ccccc5C(F)(F)F)cc4)ccc23)cn1 [Example 26, N-{4-[3-(1-methyl-1H-pyrazol-4-yl)-1H-indazol-6-yl]phenyl}-N′-[2-(trifluoromethyl)phenyl]urea]
32.5 nM | 47.5 nM | 14.8 nM | 1 nM | 267 nM | Cn1cc(-c2n[nH]c3cc(-c4ccc(NC(=O)Nc5cccc(Cl)c5)cc4)ccc23)cn1 [Example 22, N-(3-chlorophenyl)-N′-{4-[3-(1-methyl-1H-pyrazol-4-yl)-1H-indazol-6-yl]phenyl}urea]
108 nM | 216 nM | 45.1 nM | – | 10800 nM | Cn1cc(-c2n[nH]c3cc(-c4ccc(NC(=O)Nc5ccc(C(F)(F)F)cc5)cc4)ccc23)cn1 [Example 19, N-{4-[3-(1-methyl-1H-pyrazol-4-yl)-1H-indazol-6-yl]phenyl}-N′-[4-(trifluoromethyl)phenyl]urea]
25 nM | – | 137 nM | 113 nM | 3340 nM | Cn1cc(-c2n[nH]c3cc(-c4cccc(CNC(=O)Nc5cccc(F)c5)c4)ccc23)cn1 [Example 29, N-(3-fluorophenyl)-N′-{3-[3-(1-methyl-1H-pyrazol-4-yl)-1H-indazol-6-yl]benzyl}urea]
32.7 nM | 300 nM | 76.3 nM | 14 nM | 221 nM | O=C(Nc1ccc(-c2ccc3c(-c4cn[nH]c4)n[nH]c3c2)cc1)Nc1cccc(F)c1 [Example 9, N-(3-fluorophenyl)-N′-{4-[3-(1H-pyrazol-4-yl)-1H-indazol-6-yl]phenyl}urea]
44.1 nM | 176 nM | 60 nM | 55 nM | > 12500 nM | Cc1cccc(NC(=O)Nc2ccc(-c3ccc4c(-c5cnn(CCO)c5)n[nH]c4c3)cc2)c1 [Example 12, N-(4-{3-[1-(2-hydroxyethyl)-1H-pyrazol-4-yl]-1H-indazol-6-yl}phenyl)-N′-(3-methylphenyl)urea]
23.6 nM | 206 nM | 51.1 nM | 43 nM | 294 nM | O=C(Nc1ccc(-c2ccc3c(-c4cnn(CCO)c4)n[nH]c3c2)cc1)Nc1cccc(F)c1 [Example 10, N-(3-fluorophenyl)-N′-(4-{3-[1-(2-hydroxyethyl)-1H-pyrazol-4-yl]-1H-indazol-6-yl}phenyl)urea]
23.3 nM | – | 525 nM | 12 nM | 3400 nM | O=C(Nc1ccc(-c2ccc3c(-c4ccn[nH]4)n[nH]c3c2)cc1)Nc1cccc(F)c1 [Example 8, N-(3-fluorophenyl)-N′-{4-[3-(1H-pyrazol-5-yl)-1H-indazol-6-yl]phenyl}urea]
40.5 nM | 316 nM | 45 nM | 35 nM | 2490 nM | Cc1cccc(NC(=O)Nc2ccc(-c3ccc4c(-c5cnn[nH]5)n[nH]c4c3)cc2)c1 [Example 3, N-(3-methylphenyl)-N′-{4-[3-(1H-1,2,3-triazol-5-yl)-1H-indazol-6-yl]phenyl}urea]
19.2 nM | 87.1 nM | 54.9 nM | 1 nM | 371 nM | Cn1cc(-c2n[nH]c3cc(-c4ccc(NC(=O)Nc5cccc(F)c5)cc4)ccc23)cn1 [Example 1, N-(3-fluorophenyl)-N′-{4-[3-(1-methyl-1H-pyrazol-4-yl)-1H-indazol-6-yl]phenyl}urea]
